Experimental data: patent EP4786466A1, “QUINAZOLINE DERIVATIVE, SALT THEREOF, AND PHARMACEUTICAL COMPOSITION COMPRISING SAME AS ACTIVE INGREDIENT” (Korea Research Institute of Chemical Technology, priority 2023, dated 2025)
Like-named read-outs stand apart in the source and are kept apart here.

Tests used:
[1] = in vitro; details: human, mcf10a cells
Method: (§1) MCF7 breast cancer cell lines and MCF10A normal breast cancer cell lines were treated with serial dilutions of the compounds of the present invention ranging from 1 µM to 15.63 nM for 72 hours. Cell viability was measured by the WST-8 assay (Cyto XTM cell viability assay kit; LPS solution, Daejeon, Korea) according to the manufacturer's instructions.

[2] = tested on: pENSA; experiment: pENSA level by immunofluorescence (described method: in vitro kinase analysis with GST-tag-MASTL and His-tag-ENSA); type: cell-based; details: for pENSA (%) Immunofluor ecense (1 µM): compound 1 µM; for IC50: read-out: IC50(nM) pENSA
In short: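 In vitro kinase reaction using recombinant GST-tagged MASTL with His-tagged ENSA as substrate; phosphorylated ENSA (pENSA) serves as read-out of MASTL activity. Cell lines named: MCF7 breast cancer and MCF10A.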

[3] = tested on: MCF10A normal breast cell lines; experiment: Cell viability analysis, WST-8 assay, MCF10A; details: Homo sapiens, MCF-10A, 72 h, read-out: IC50(nM) Cell viability (MCF10A)
Method: as §1

[4] = tested on: MCF7 breast cancer cell lines; experiment: Cell viability analysis, WST-8 assay, MCF7; details: Homo sapiens, MCF7, 72 h; for viability at 1 µM: read-out: Cell viability (%) WST-8, MCF7 (1 µM), compound 1 µM, 72 hours
Method: as §1

[5] = target: T1, Recombinant GST-TAG-MASTL (Homo sapiens, UniProt Q96GX5); experiment: HTRF-based kinase assay (HTRF KinEASE assay kit); type: biochemical; details: for activity at 1 µM: compound 1 µM, read-out: MASTL activity (%) HTRF (1 µM); for IC50: HTRF
T1 construct: GST; purchased Thermo Fisher Scientific
T1 sequence (Q96GX5 1-879): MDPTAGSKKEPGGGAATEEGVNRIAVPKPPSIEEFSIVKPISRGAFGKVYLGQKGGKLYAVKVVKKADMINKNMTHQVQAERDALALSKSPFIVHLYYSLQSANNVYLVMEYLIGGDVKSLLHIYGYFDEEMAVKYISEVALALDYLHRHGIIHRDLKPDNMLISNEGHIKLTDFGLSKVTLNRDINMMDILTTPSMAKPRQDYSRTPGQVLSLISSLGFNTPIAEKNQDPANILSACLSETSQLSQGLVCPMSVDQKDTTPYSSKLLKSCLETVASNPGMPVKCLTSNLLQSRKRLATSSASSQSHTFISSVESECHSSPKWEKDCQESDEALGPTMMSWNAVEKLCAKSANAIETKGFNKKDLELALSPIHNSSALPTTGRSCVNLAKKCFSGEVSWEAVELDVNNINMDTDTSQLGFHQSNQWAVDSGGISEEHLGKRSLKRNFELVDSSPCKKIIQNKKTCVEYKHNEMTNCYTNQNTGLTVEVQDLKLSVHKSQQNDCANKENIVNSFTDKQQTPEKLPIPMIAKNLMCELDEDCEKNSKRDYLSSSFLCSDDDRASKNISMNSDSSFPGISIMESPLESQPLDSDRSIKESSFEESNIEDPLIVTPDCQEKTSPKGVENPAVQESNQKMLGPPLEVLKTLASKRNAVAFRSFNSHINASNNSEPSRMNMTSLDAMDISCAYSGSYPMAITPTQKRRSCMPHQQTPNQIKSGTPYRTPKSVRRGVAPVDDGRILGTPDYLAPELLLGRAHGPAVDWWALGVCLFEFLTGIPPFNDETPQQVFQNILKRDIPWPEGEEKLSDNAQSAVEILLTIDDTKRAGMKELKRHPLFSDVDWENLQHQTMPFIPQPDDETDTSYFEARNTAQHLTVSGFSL
Source text: Recombinant GST-TAG-MASTL (Thermo Fisher Scientific, MA, USA) was used for HTRF-based kinase assays. The HTRF KinEASE assay kit (CisBio, MA, USA) was used according to the manufacturer's instructions.

[6] = read-out: IC50(nM) Cell viability (MCF7)
[7] = read-out: IC50(nM) MASTL activity
[8] = unit µM, read-out: IC50 MASTL activity

SMILES | viability at 1 µM [1] [%] | pENSA (%) Immunofluor ecense (1 µM) [2] [%] | IC50 [3] [nM] | viability at 1 µM [4] [%] | IC50 [4, 6] [nM] | activity at 1 µM [5] [%] | IC50 [2] [nM] | IC50 [5, 7] [nM] | IC50 [5, 8] [nM] | IC50 ([4]; read-out: IC50 Cell viability (MCF7)) [nM]
c1ccc2c(Nc3cc(C4CC4)[nH]n3)nc(Nc3cc(C4CC4)[nH]n3)nc2c1 [compound 4n, M^2,M^4-bis(5-cyclopropyl-1G-pyrazol-3-yl)quinazoline-2,4-diamine] | 3.2 | 92.8 | 116 | 21.5 | 287 | 106 | – | – | – | –
O=C(O)Cc1ccc(Nc2nc(Nc3cc(C4CC4)[nH]n3)c3ccccc3n2)cc1 [compound 4s, 2-(4-((4-((5-cyclopropyl-1G-pyrazol-3-yl)amino)quinazolin-2-yl)amino)phenyl)acetic acid] | 113 | 89.1 | 113 | 102 | 102 | 56.2 | 89.1 | – | – | –
NC(=O)c1ccc(Nc2nc(Nc3cc(C4CC4)[nH]n3)c3ccccc3n2)cc1 [compound 4t, 4-((4-((5-cyclopropyl-1G-pyrazol-3-yl)amino)quinazolin-2-yl)amino)benzamide] | 18.4 | 0.9 | 226 | 2.7 | 324 | 14.9 | 341 | 198 | – | –
NC(=O)Cc1ccc(Nc2nc(Nc3cc(C4CC4)[nH]n3)c3ccccc3n2)cc1 [compound 4u, 2-(4-((4-((5-cyclopropyl-1G-pyrazol-3-yl)amino)quinazolin-2-yl)amino)phenyl)acetamide] | 25.5 | 41.2 | 718 | 64.8 | – | 30.5 | – | 392 | – | –
Nc1ccc(Nc2nc(Nc3cc(C4CC4)[nH]n3)c3ccccc3n2)cc1 [compound 4v, M^2-(4-aminophenyl)-M^4-(5-cyclopropyl-1G-pyrazol-3-yl)quinazoline-2,4-diamine] | 34.1 | 15.3 | 438 | 32.8 | 390 | 41.4 | – | – | 1500 | –
CC(C)(C)OC(=O)NCCNC(=O)c1ccc(Nc2nc(Nc3cc(C4CC4)[nH]n3)c3ccccc3n2)cc1 [compound 4w, sdqs-butyl (2-(4-((4-((5-cyclopropyl-1G-pyrazol-3-yl)amino)quinazolin-2-yl)amino)benzamido)ethyl)carbamate] | 63.4 | 135 | 908 | 72 | – | 48.5 | – | – | 1300 | 1800
c1ccc2c(Nc3cc(C4CC4)[nH]n3)nc(N3CCC4(CC3)OCCO4)nc2c1 [compound 6a, M-(5-cyclopropyl-1G-pyrazol-3-yl)-2-(1,4-dioxa-8-azaspiro[4.5]decan-8-yl)quinazolin-4-amine] | 20.9 | 10.1 | 392 | 13.2 | 499 | 15.2 | 532 | 340 | – | –
Cc1ccc(C2=CCN(c3nc(Nc4cc(C5CC5)[nH]n4)c4ccccc4n3)CC2)c(C)c1 [compound 6j, M-(5-cyclopropyl-1G-pyrazol-3-yl)-2-(4-(2,4-dimethylphenyl)-3,6-dihydropyridin-1(2G)-yl)quinazolin-4-amine] | 33.1 | 97.4 | 566 | 45.6 | 674 | 80 | – | – | – | –
Cc1cc(Cl)ccc1C1=CCN(c2nc(Nc3cc(C4CC4)[nH]n3)c3ccccc3n2)CC1 [compound 6l, 2-(4-(4-chloro-2-methylphenyl)-3,6-dihydropyridin-1(2G)-yl)-M-(5-cyclopropyl-1G-pyrazol-3-yl)quinazolin-4-amine] | 15.2 | 101 | 332 | 47.8 | 484 | 76.1 | – | – | – | –
